Measured values from patent US10414774B2, “Compound useful for altering the levels of bile acids for the treatment of diabetes and cardiometabolc disease” (Merck Sharp & Dohme Corp., priority 2016, dated 2019).

target: T1, Human CYP8B1 (Homo sapiens, UniProt Q9UNU6); assay: Human CYP8B1 Liver Microsome Assay; conditions: Human CYP8B1 IC50, human liver microsomes; substrate 7a-hydroxy-4-cholesten-3-one, NADPH; RapidFire MS detection of 7α,12α-dihydroxy-4-cholesten-3-one
T1 sequence (Q9UNU6 1-501): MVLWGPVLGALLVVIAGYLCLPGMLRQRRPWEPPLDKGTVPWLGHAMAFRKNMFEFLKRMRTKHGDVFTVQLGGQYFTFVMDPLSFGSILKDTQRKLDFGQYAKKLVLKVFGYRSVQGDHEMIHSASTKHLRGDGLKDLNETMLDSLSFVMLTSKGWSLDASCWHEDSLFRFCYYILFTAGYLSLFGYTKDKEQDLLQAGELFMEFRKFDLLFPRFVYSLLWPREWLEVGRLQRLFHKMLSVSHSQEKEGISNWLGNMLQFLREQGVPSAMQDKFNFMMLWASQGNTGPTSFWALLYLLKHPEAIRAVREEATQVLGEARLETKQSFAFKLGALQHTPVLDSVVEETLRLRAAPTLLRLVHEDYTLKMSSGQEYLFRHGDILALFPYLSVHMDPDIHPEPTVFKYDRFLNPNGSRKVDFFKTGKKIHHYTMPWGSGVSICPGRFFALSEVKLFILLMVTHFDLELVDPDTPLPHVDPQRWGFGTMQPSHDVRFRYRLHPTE

SMILES	IC50 [nM]
CC1CN(c2c(C#N)cnc3c(C(F)F)cc(Cl)cc23)CCC1C(=O)N1CCn2c(nnc2C(F)(F)F)C1 (centres unmarked) [Example 58]	4.8
C[C@@H]1CN(c2c(C#N)cnc3cc(F)ccc23)CC[C@@H]1C(=O)N1CCn2c(nnc2C(F)(F)F)C1 [Example 6, 7-fluoro-4-[(3S,4S)-3-methyl-4-{[3-(trifluoromethyl)-5,6-dihydro[1,2,4]triazolo[4,3-a]pyrazin-7(8H)-yl]carbonyl}piperidin-1-yl]quinoline-3-carbonitrile]	2.1
COc1ccc2c(N3CC[C@H](C(=O)N4Cc5nnc(C(F)(F)F)n5C(C)(C)C4)[C@H](C)C3)c(C#N)cnc2c1F [Example 82, 4-((3S,4S)-4-(5,5-dimethyl-3-(trifluoromethyl)-5,6,7,8-tetrahydro-[1,2,4]triazolo[4,3-a]pyrazine-7-carbonyl)-3-methylpiperidin-1-yl)-8-fluoro-7-methoxyquinoline-3-carbonitrile]	58
C[C@H]1CN(c2c(C#N)c(C(F)F)nc3ccc(Cl)cc23)CC[C@H]1C(=O)N1CCn2c(nnc2C(F)(F)F)C1 (single isomer, unassigned) [Example 57b]	1490
N#Cc1cnc2ccc(Cl)cc2c1N1CCC(F)(C(=O)N2CCn3c(nnc3C(F)(F)F)C2)CC1 [Example 120, 6-chloro-4-(4-fluoro-4-{[3-(trifluoromethyl)-5,6-dihydro[1,2,4]triazolo[4,3-a]pyrazin-7(8H)-yl]carbonyl}piperidin-1-yl)quinoline-3-carbonitrile]	169
CC(C)COc1ccc2c(N3CC[C@H](C(=O)N4CCn5c(nnc5C(F)(F)F)C4)[C@H](C)C3)c(C#N)cnc2c1 [Example 101, 7-(2-methylpropoxy)-4-[(3S,4S)-3-methyl-4-{[3-(trifluoromethyl)-5,6-dihydro[1,2,4]triazolo[4,3-a]pyrazin-7(8H)-yl]carbonyl}piperidin-1-yl]quinoline-3-carbonitrile]	0.33
C[C@@H]1CN(c2c(C#N)cnc3c(F)c(Cl)c(F)cc23)CC[C@@H]1C(=O)N1CCn2c(nnc2C(F)(F)F)C1 [Example 15, 7-chloro-6,8-difluoro-4-[(3S,4S)-3-methyl-4-{[3-(trifluoromethyl)-5,6-dihdyro[1,2,4]triazolo[4,3-a]pyrazin-7(8H)-yl]carobnyl}piperidin-1-yl]quinoline-3-carbonitrile]	1
Cc1nc2ccc(Cl)cc2c(N2CC[C@H](C(=O)N3CCn4nccc4C3)[C@H](C)C2)c1C#N [Example 96, 6-chloro-4-[(3S,4S)-4-(6,7-dihydropyrazolo[1,5-a]pyrazin-5(4H)-ylcarbonyl)-3-methylpiperidin-1-yl]-2-methylquinoline-3-carbonitrile]	8.6
C[C@@H]1CN(c2c(C#N)cnc3cc(C(F)F)ccc23)CC[C@@H]1C(=O)N1CCn2c(nnc2C(F)(F)F)C1 [Example 23, 7-(difluoromethyl)-4-((3S,4S)-3-methyl-4-(3-(trifluoromethyl)-5,6,7,8-tetrahydro-[1,2,4]trizolo[4,3-a]pyrazine-7-carbonyl)piperidin-1-yl)quinolone-3-carbonitrile]	0.5
N#Cc1cnc2ccc(Cl)cc2c1N1CC[C@@H](C(=O)N2CCn3c(nnc3C(F)(F)F)C2)[C@@H](C2CC2)C1 [Example 76a, 6-chloro-4-[(3R,4R)-3-cyclopropyl-4-{[3-(trifluoromethyl)-5,6-dihydro[1,2,4]triazolo[4,3-a]pyrazin-7(8H)-yl]carbonyl}piperidin-1-yl]quinoline-3-carbonitrile]	1320
CC1CN(c2c(C#N)cnc3ccc(Cl)cc23)CCC1C(=O)N1CCn2c(nnc2C(F)(F)F)C1 (centres unmarked) [Example 116, 6-chloro-4-(3-methyl-4-(3-(trifluoromethyl)-5,6,7,8-tetrahydro-[1,2,4]triazolo[4,3-a]pyrazine-7-carbonyl)piperidin-1-yl)quinoline-3-carbonitrile]	1.4
CC(C)Oc1ccc2c(N3CC[C@H](C(=O)N4CCn5c(nnc5C(F)(F)F)C4)[C@H](C)C3)c(C#N)cnc2c1 [Example 64, 4-[(3S,4S)-3-methyl-4-{[3-(trifluoromethyl)-5,6-dihydro[1,2,4]triazolo[4,3-a]pyrazin-7(8H)-yl]carbonyl}piperidin-1-yl]-7-(propan-2-yloxy)quinoline-3-carbonitrile]	0.3
COc1cc2ncc(C#N)c(N3CC[C@H](C(=O)N4CCn5c(nnc5C(F)(F)F)C4)[C@H](C)C3)c2cc1Br [Example 20, 6-bromo-7-methoxy-4-[(3S,4S)-3-methyl-4-{[3-(trifluoromethyl)-5,6-dihydro[1,2,4]triazolo[4,3-a]pyrazin-7(8H)-yl]carbonyl}piperidin-1-yl]quinoline-3-carbonitrile]	0.24
C[C@@H]1CN(c2c(C#N)cnc3cc(OCC(F)F)ccc23)CC[C@@H]1C(=O)N1CCn2c(nnc2C(F)(F)F)C1 [Example 102, 7-(2,2-difluoroethoxy)-4-[(3S,4S)-3-methyl-4-{[3-(trifluoromethyl)-5,6-dihydro[1,2,4]triazolo[4,3-a]pyrazin-7(8H)-yl]carbonyl}piperidin-1-yl]quinoline-3-carbonitrile]	0.33
C[C@@H]1CN(c2c(C#N)c[n+]([O-])c3ccc(Cl)cc23)CC[C@@H]1C(=O)N1CCn2c(nnc2C(F)(F)F)C1 [Example 123, 6-chloro-3-cyano-4-((3S,4S)-3-methyl-4-(3-(trifluoromethyl)-5,6,7,8-tetrahydro-[1,2,4]triazolo[4,3-a]pyrazine-7-carbonyl)piperidin-1-yl)quinoline 1-oxide]	1.9
CC1CN(c2c(C#N)cnc3ccc(F)cc23)CCC1C(=O)N1CCn2c(nnc2C(F)(F)F)C1 (centres unmarked) [Example 117, 6-fluoro-4-(3-methyl-4-{[3-(trifluoromethyl)-5,6-dihydro[1,2,4]triazolo[4,3-a]pyrazin-7(8H)-yl]carbonyl}piperidin-1-yl)quinoline-3-carbonitrile]	1.2
C[C@@H]1CN(c2c(C#N)cnc3ccc(Cl)cc23)CCN1C(=O)N1CCn2c(nnc2C(F)(F)F)C1 [Example 128, 6-chloro-4-[(3R)-3-methyl-4-{[3-(trifluoromethyl)-5,6-dihydro[1,2,4]triazolo[4,3-a]pyrazin-7(8H)-yl]carbonyl}piperazin-1-yl]quinoline-3-carbonitrile]	2.9
C[C@@H]1CN(c2c(C#N)cnc3cc(C(F)(F)F)ccc23)CC[C@@H]1C(=O)N1CCn2c(nnc2C(F)(F)F)C1 [Example 16, 4-[(3S,4S)-3-methyl-4-{[3-(trifluoromethyl)-5,6-dihydro[1,2,4]triazolo[4,3-a]pyrazin-7(8H)-yl]carbonyl}piperidin-1-yl]-7-(trifluoromethyl)quinoline-3-carbonitrile]	0.38
C[C@@H]1CN(c2c(C#N)cnc3c(F)c(Cl)ccc23)CC[C@@H]1C(=O)N1CCn2c(nnc2C(F)(F)F)C1 [Example 1, 7-chloro-8-fluoro-4-[(3S,4S)-3-methyl-4-{[3-(trifluoromethyl)-5,6-dihydro[1,2,4]triazolo[4,3-a]pyrazin-7(8H)-yl]carbonyl}piperidin-1-yl]quinoline-3-carbonitrile]	0.47
C[C@@H]1CN(c2c(C#N)cnc3c(F)cccc23)CC[C@@H]1C(=O)N1CCn2c(nnc2C(F)(F)F)C1 [Example 12, 8-fluoro-4-[(3S,4S)-3-methyl-4-{[3-(trifluoromethyl)-5,6-dihydro[1,2,4]triazolo[4,3-a]pyrazin-7(8H)-yl]carbonyl}piperidin-1-yl]quinoline-3-carbonitrile]	1.1
